Measured values from US9790506B2, “Diagnostic and screening methods for atopic dermatitis” (The Regents of the University of California, priority 2013, dated 2017).
Ends that are not written are not given here.

Tests used:
[1] = system: NFAT; assay: NFAT translocation to the nucleus in keratinocytes (immunostaining); assay type: cell-based, human; conditions: for SLIGRL-induced NFAT nuclear translocation in the presence of inhibitor: SLIGRL 100 μM + 2APB 50 μM or CsA 1 μM, 30 min
Protocol: Histology Histology was carried out as previously described (Gerhold, 2013). Antibodies: rabbit anti-PGP9.5 and rabbit anti-peripherin (Millipore) 1:1000; goat anti-TSLPR and mouse anti-NFATcI (Santa Cruz Biotechnology) 1:100. IL7Rα and TSLPR probes (Panomics) were used for in situ hybridization following the Quantigene protocol (Panomics).
Following a rise in Ca^2+, NFAT is dephosphorylated by the Ca^2+-dependent phosphatase calcineurin and translocates from the cytosol to the nucleus to promote transcription of target genes (Rao et al., 1997).

[2] = system: keratinocytes; assay: ratiometric Ca^2+ imaging of keratinocytes; assay type: cell-based, human; conditions: for SLIGRL-evoked Ca^2+ influx / intracellular Ca^2+ response of keratinocytes: SLIGRL 100 μM; for SLIGRL-evoked Ca^2+ influx / tryptase-evoked Ca^2+ influx: 2 mM Ca^2+, 50 μM 2-APB, 50 nM La^3+; for tryptase-evoked Ca^2+ influx / intracellular Ca^2+ response of keratinocytes: tryptase 100 nM; for intracellular Ca^2+ response of keratinocytes: BAM8-22 2 μM
Protocol: (§1) Physiological Ringer solution: 140 mM NaCl, 5 mM KCl, 10 mM HEPES, 2 mM CaCl2, 2 mM MgCl2, 10 mM D-(+)-glucose, pH 7.4 with NaOH. Images were collected and analyzed using MetaFluor (Molecular Devices).

[3] = system: DRG neurons; assay: ratiometric Ca^2+ imaging of DRG neurons; assay type: cell-based, mouse; conditions: for Ca^2+ levels in TSLP-positive cells on subsequent exposure: AITC 200 μM, CAP 1 μM, all TSLP-positive cells; for overlap of the TSLP-sensitive population with the population sensitive to the compound: DRG neurons, FIG. 3D; for prevalence of TSLP-sensitive neurons / TSLP-evoked Ca^2+ signals after pre-treatment: neurons pre-treated with blocker versus vehicle
Protocol: as §1

[4] = system: mice; assay: mouse cheek model of itch (scratching behavior after intradermal injection); assay type: in vivo
Protocol: Mice and Behavior Mice (20-35 g) were housed in 12 h light-dark cycle at 21° C. […] For AITC behavior, 5 μL 10% AITC in mineral oil was applied to the right hind paw. Behavioral scoring was performed while blind to treatment and genotype. All experiments were performed under the policies and recommendations of the International Association for the Study of Pain and approved by the University of California, Berkeley Animal Care and Use Committee. […]

[5] = system: keratinocytes; assay: TSLP release from keratinocytes (ELISA); assay type: cell-based, human; conditions: 24 h treatment, tryptase 100 nM, SLIGRL 100 μM; for TSLP secretion: TG 1 μM, versus vehicle; for TSLP secretion in the absence of external Ca^2+: 0 Ca
Excerpt: TSLP release was normalized to vehicle.

[6] = system: keratinocytes; assay: perforated-patch voltage-clamp recordings on keratinocytes; assay type: cell-based, human; conditions: SLIGRL 100 μM
Protocol: Electrophysiology Recordings were collected at 5 kHz and filtered at 2 kHz using an Axopatch 200B and PClamp software. Electrode resistances were 2-6 MΩ. Perforated patch internal solution: 140 mM CsCl, 5 mM EGTA, 10 mM HEPES, pH 7.4 with CsOH, 0.24 mg ml^−1 Amphotericin B (Rae et al., 1991). Stimulation protocol: 10 ms step to −80 mV, 150 ms ramp from −80 mV to +80 mV. Current clamp internal solution: 140 mM KCl, 5 mM EGTA and 10 mM HEPES (pH 7.4 with KOH). Series resistance of all cells were <30 MΩ, and liquid junction potentials were <5 mV (no correction).

[7] = system: TSLP transcripts; assay: expression of TSLP transcripts in keratinocytes; assay type: cell-based, human; conditions: PAR2-evoked SOCE; 3 h treatment with SLIGRL 100 μM versus vehicle
Protocol: RT-PCR RNA was extracted using RNeasy (Qiagen) and reverse transcription was performed using Superscript III. RT-PCR was carried out using SYBR Green (Invitrogen) on a StepOnePlus ABI machine. Threshold cycles for each transcript (Bogiatzi et al.) were normalized to GAPDH (ACt). Calibrations and normalizations used the 2^−ΔΔCt method where ΔΔCt=[(Ct (target gene)−Ct (reference gene)]−[Ct (calibrator)−Ct (reference gene)]; GAPDH=reference gene; scrambled siRNA=calibrator. Experiments were performed in triplicate.

[8] = system: DRG neuron; assay: current-clamp recording in DRG neuron; assay type: cell-based, mouse; conditions: subset of CAP-sensitive DRG neurons
[9] = target: T1, MrgprC11 (Mus musculus, UniProt Q8CIP3); assay: Ca^2+ response in the presence or absence of the mouse BAM8-22 receptor MrgprC11; assay type: cell-based; conditions: tryptase 3 μM
T1 sequence (Q8CIP3 1-322): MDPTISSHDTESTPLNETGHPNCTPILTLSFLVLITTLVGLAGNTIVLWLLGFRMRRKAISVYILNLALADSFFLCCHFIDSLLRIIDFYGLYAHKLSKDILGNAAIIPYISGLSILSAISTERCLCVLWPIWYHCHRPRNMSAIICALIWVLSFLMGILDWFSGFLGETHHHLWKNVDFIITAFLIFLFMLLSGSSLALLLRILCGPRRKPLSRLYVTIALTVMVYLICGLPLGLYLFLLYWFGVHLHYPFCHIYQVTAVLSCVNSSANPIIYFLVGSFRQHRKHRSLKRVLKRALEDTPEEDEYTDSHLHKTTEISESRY
Protocol: FIG. 15. […] MrgprX1 was amplified from DRG, but not keratinocytes. MrgprX1 and GAPDH were amplified from RT-treated tissue but not from “no RT” controls. (B) Representative response to BAM8-22 (BAM, 2 μM) in human keratinocytes. (C) Representative response to tryptase (TRY, 3 μM) and BAM8-22 (BAM, 2 μM) in the presence or absence of the mouse BAM8-22 receptor, MrgprC11. (D) Left: representative traces showing a neuron that is sensitive to BAM8-22 (BAM) but not tryptase (TRY, blue), and a neuron that is sensitive to tryptase but not BAM8-22 (black). Right: quantification of the prevalence of tryptase-responsive (TRY, black), BAM8-22-responsive (blue, BAM), and tryptase- and BAM8-22-responsive neurons in mouse dorsal root ganglia. n≧500 cells. Data are represented as mean+/−SEM

NCCOB(c1ccccc1)c1ccccc1 [2-APB, 2-Aminoethoxydiphenyl borate]
SLIGRL-induced NFAT nuclear translocation in the presence of inhibitor [1]: attenuated
SLIGRL-induced NFAT nuclear translocation in the presence of inhibitor ([1]; listed as 2APB): prevented
SLIGRL-evoked Ca^2+ influx [2]: significantly attenuated
tryptase-evoked Ca^2+ influx [2]: significantly attenuated

C=CCN=C=S [AITC, allyl isothiocyanate]
Ca^2+ levels in TSLP-positive cells on subsequent exposure [3]: further increased

COc1cc(CNC(=O)CCCC/C=C/C(C)C)ccc1O [CAP, capsaicin]
Ca^2+ levels in TSLP-positive cells on subsequent exposure [3]: further increased

CCN(CC)CCCC(C)Nc1ccnc2cc(Cl)ccc12 (stereo not shown) [CQ, chloroquine]
overlap of the TSLP-sensitive population with the population sensitive to the compound [3]: 6%

[La+3] [La^3+, lanthanum]
SLIGRL-evoked Ca^2+ influx [2]: significantly attenuated
tryptase-evoked Ca^2+ influx [2]: significantly attenuated

C=C(C)[C@]12C[C@@H](C)[C@@]34O[C@](Cc5ccccc5)(O[C@@H]1[C@@H]3C=C(COC(=O)Cc1ccc(O)c(OC)c1)C[C@]1(O)C(=O)C(C)=C[C@@H]41)O2 [RTX, resiniferatoxin]
TSLP-evoked scratching after neuronal ablation ([4]; RTX-treated mice compared to control mice, RTX two days prior to pruritogen): significantly decreased

C/C=C(/C)C(=O)O[C@H]1C(C)=C2[C@H]([C@@H]1OC(=O)CCCCCCC)[C@@](C)(OC(C)=O)C[C@H](OC(=O)CCC)[C@@]1(O)[C@H]2OC(=O)[C@@]1(C)O [TG, thapsigargin]
TSLP secretion [5]: significant increase

COc1ccc2c(c1)CC[C@@H]1[C@@H]2CC[C@]2(C)[C@@H](NCCCCCCN3C(=O)C=CC3=O)CC[C@@H]12 [U73122, 1-[6-[[(17β)-3-Methoxyestra-1,3,5(10)-trien-17-yl]amino]hexyl]-1H-pyrrole-2,5-dione]
prevalence of TSLP-sensitive neurons / TSLP-evoked Ca^2+ signals after pre-treatment [3]: significantly reduced
TSLP-evoked scratching after intradermal injection of PLC blocker ([4]; 30 min preinjection, versus vehicle, scratching quantified for 20 min): significantly attenuated
CQ-evoked scratching after intradermal injection of PLC blocker ([4]; preinjection, versus vehicle): normal

O=C1OC2(c3ccccc31)c1ccc(O)c(O)c1Oc1c2ccc(O)c1O [gallein]
prevalence of TSLP-sensitive neurons / TSLP-evoked Ca^2+ signals after pre-treatment [3]: no effect

NCCc1c[nH]cn1 [histamine]
overlap of the TSLP-sensitive population with the population sensitive to the compound [3]: 6%

N.N.N.N.N.N.N.N.N.N.N.N.N.N.[Cl-].[Cl-].[Cl-].[Cl-].[Cl-].[Cl-].[O-2].[O-2].[Ru+3].[Ru+3].[Ru+4] [ruthenium red]
neuronal sensitivity to TSLP after TRPV1 and TRPA1 inhibition ([3]; 20 μM ruthenium red): significantly decreased

SLIGRL [widely used PAR2 ligand mimetic]
reversal potential of SLIGRL-evoked currents [6]: no measurable reversal potentials below +80 mV
SLIGRL-evoked currents ([6]; dependent on extracellular Ca^2+, inwardly-rectifying): triggered an ORAI1/2-like current
NFAT translocation to the nucleus ([1]; SLIGRL 100 μM for 30 minutes): induced robust NFAT translocation
expression of TSLP transcripts [7]: robustly increased
TSLP secretion [5]: robust secretion
TSLP secretion in the absence of external Ca^2+ [5]: not observed
intracellular Ca^2+ response of keratinocytes [2]: evoked a rise in intracellular Ca^2+

TSLP: AD cytokine released from keratinocytes; injected as pruritogen, acts on TSLPR-positive sensory neurons
action potential firing [8]: triggered action potential firing
DRG neurons showing robust increases in intracellular Ca^2+ ([3]; TSLP application (2 ng/mL), wild-type neurons): 4.1±0.6%
source of TSLP-evoked Ca^2+ signal in sensory neurons ([3]; absence (0 mM) and presence (2 mM) of extracellular Ca^2+): triggers both release of Ca^2+ from intracellular stores, and subsequent Ca^2+ influx
evoked Ca^2+ signaling abolished in IL7Rα-deficient neurons ([3]; neurons isolated from IL7Rα-deficient mice): abolished
TSLP-evoked Ca^2+ signals in TRPA1-deficient neurons ([3]; versus wild type littermates): significantly attenuated
TSLP-evoked itch behaviors in strains lacking T and B cells or mast cells ([4]; RAG1−/−, NOD SCID, Kit(W-sh) mice, no significant differences to wild type littermates): robust itch behaviors
time after injection at which robust itch behaviors were observed ([4]; TSLP injection): ≤ 5 min
wiping (pain behavior) ([4]; TSLP injection into the cheek of wild type mice): never observed
latency to scratch ([4]; TSLP injection into the cheek of wild type mice (2.5 μg/20 μl)): 4.1 ± 0.3 min
itch-evoked scratching ([4]; TSLP injection into the cheek of wild type mice, versus vehicle): evoked robust scratching
TSLP-evoked scratching in TRPA1-deficient mice ([4]; cheek injection 2.5 μg/10 μL): abolished
TSLP-evoked scratching in TRPV1-deficient mice ([4]; cheek injection 2.5 μg/10 μL): normal
TSLP-evoked scratching in IL7Rα-deficient mice ([4]; cheek injection, versus wild type): significantly attenuated

VGRPEWWMDYQKRYG [BAM8-22, MrgprX1-specific ligand, endogenous pruritogen]
overlap of the TSLP-sensitive population with the population sensitive to the compound [3]: 0%
intracellular Ca^2+ response of keratinocytes [2]: insensitive

tryptase: endogenous PAR2 agonist
activation of MrgprC11 [9]: does not activate
TSLP secretion [5]: robust secretion
TSLP secretion in the absence of external Ca^2+ [5]: not observed
intracellular Ca^2+ response of keratinocytes [2]: evoked a rise in intracellular Ca^2+
tryptase-evoked itch in IL7Rα-deficient mice ([4]; cheek 100 μg/20 μL): significantly attenuated
tryptase-evoked itch in PAR2-deficient mice ([4]; cheek 100 μg/20 μL): significantly attenuated
tryptase-evoked itch behaviors ([4]; wild type mice, cheek 100 μg/20 μL, scratching quantified for 1 h): induced robust itch behaviors
